Measured values: ChEMBL document CHEMBL1156542, “Facile radiosynthesis of fluorine-18 labeled beta-blockers. Synthesis, radiolabeling, and ex vivo biodistribution of [18F]-(2S and 2R)-1-(1-fluoropropan-2-ylamino)-3-(m-tolyloxy)propan-2-ol” (J Med Chem, 2008)

What was measured:
[1] = Lipophilicity, log P at pH 7.4; format: physicochemical; conditions: buffer
Cerebellum [2] = test: Biodistribution in Sprague-Dawley rat cerebellum at 70 uCi, iv after 5 mins; format: ADME, organism-based; conditions: in vivo
Hippocampus [3] = test: Biodistribution in Sprague-Dawley rat hippocampus at 70 uCi, iv after 5 mins; format: ADME, organism-based; conditions: in vivo
Striatum [4] = test: Biodistribution in Sprague-Dawley rat striatum at 70 uCi, iv after 5 mins; format: ADME, organism-based; conditions: in vivo
[5] = Biodistribution in Sprague-Dawley rat frontal cortex at 70 uCi, iv after 5 mins; format: ADME, organism-based; conditions: in vivo
Cortex [6] = test: Biodistribution in Sprague-Dawley rat rest of cortex at 70 uCi, iv after 5 mins; format: ADME, organism-based; conditions: in vivo
Thalamus [7] = test: Biodistribution in Sprague-Dawley rat thalamus at 70 uCi, iv after 5 mins; format: ADME, organism-based; conditions: in vivo
Hypothalamus [8] = test: Biodistribution in Sprague-Dawley rat hypothalamus at 70 uCi, iv after 5 mins; format: ADME, organism-based; conditions: in vivo
Brain [9] = test: Biodistribution in Sprague-Dawley rat rest of brain at 70 uCi, iv after 5 mins; format: ADME, organism-based; conditions: in vivo
Heart [10] = test: Biodistribution in Sprague-Dawley rat heart at 70 uCi, iv after 5 mins; format: ADME, organism-based; conditions: in vivo
Bone [11] = test: Biodistribution in Sprague-Dawley rat bone at 70 uCi, iv after 5 mins; format: ADME, organism-based, Bone element; conditions: in vivo
Plasma [12] = test: Biodistribution in Sprague-Dawley rat plasma at 70 uCi, iv after 5 mins; format: ADME, organism-based; conditions: in vivo
[13] = Metabolic stability in Sprague-Dawley rat plasma at 70 uCi, iv after 5 mins; format: ADME, organism-based; conditions: read-out: Stability
[14] = Metabolic stability in Sprague-Dawley rat plasma at 70 uCi, iv after 15 mins; format: ADME, organism-based; conditions: read-out: Stability
[15] = Metabolic stability in Sprague-Dawley rat plasma at 70 uCi, iv after 30 mins; format: ADME, organism-based; conditions: read-out: Stability
[16] = Metabolic stability in Sprague-Dawley rat plasma at 70 uCi, iv after 60 mins; format: ADME, organism-based; conditions: read-out: Stability
Cerebellum [17] = test: Biodistribution in Sprague-Dawley rat cerebellum at 70 uCi, iv after 15 mins; format: ADME, organism-based; conditions: in vivo, 0.25 h
Hippocampus [18] = test: Biodistribution in Sprague-Dawley rat hippocampus at 70 uCi, iv after 15 mins; format: ADME, organism-based; conditions: in vivo, 0.25 h
Heart [19] = test: Biodistribution in Sprague-Dawley rat heart at 70 uCi, iv after 15 mins; format: ADME, organism-based; conditions: in vivo, 0.25 h
Striatum [20] = test: Biodistribution in Sprague-Dawley rat striatum at 70 uCi, iv after 15 mins; format: ADME, organism-based; conditions: in vivo, 0.25 h
[21] = Biodistribution in Sprague-Dawley rat frontal cortex at 70 uCi, iv after 15 mins; format: ADME, organism-based; conditions: in vivo, 0.25 h
Cortex [22] = test: Biodistribution in Sprague-Dawley rat rest of cortex at 70 uCi, iv after 15 mins; format: ADME, organism-based; conditions: in vivo, 0.25 h
Thalamus [23] = test: Biodistribution in Sprague-Dawley rat thalamus at 70 uCi, iv after 15 mins; format: ADME, organism-based; conditions: in vivo, 0.25 h
Hypothalamus [24] = test: Biodistribution in Sprague-Dawley rat hypothalamus at 70 uCi, iv after 15 mins; format: ADME, organism-based; conditions: in vivo, 0.25 h
Brain [25] = test: Biodistribution in Sprague-Dawley rat rest of brain at 70 uCi, iv after 15 mins; format: ADME, organism-based; conditions: in vivo, 0.25 h
Bone [26] = test: Biodistribution in Sprague-Dawley rat bone at 70 uCi, iv after 15 mins; format: ADME, organism-based, Bone element; conditions: in vivo, 0.25 h
Plasma [27] = test: Biodistribution in Sprague-Dawley rat plasma at 70 uCi, iv after 15 mins; format: ADME, organism-based; conditions: in vivo, 0.25 h
Cerebellum [28] = test: Biodistribution in Sprague-Dawley rat cerebellum at 70 uCi, iv after 30 mins; format: ADME, organism-based; conditions: in vivo, 0.5 h
Hippocampus [29] = test: Biodistribution in Sprague-Dawley rat hippocampus at 70 uCi, iv after 30 mins; format: ADME, organism-based; conditions: in vivo, 0.5 h
Striatum [30] = test: Biodistribution in Sprague-Dawley rat striatum at 70 uCi, iv after 30 mins; format: ADME, organism-based; conditions: in vivo, 0.5 h
[31] = Biodistribution in Sprague-Dawley rat frontal cortex at 70 uCi, iv after 30 mins; format: ADME, organism-based; conditions: in vivo, 0.5 h
Cortex [32] = test: Biodistribution in Sprague-Dawley rat rest of cortex at 70 uCi, iv after 30 mins; format: ADME, organism-based; conditions: in vivo, 0.5 h
Thalamus [33] = test: Biodistribution in Sprague-Dawley rat thalamus at 70 uCi, iv after 30 mins; format: ADME, organism-based; conditions: in vivo, 0.5 h
Hypothalamus [34] = test: Biodistribution in Sprague-Dawley rat hypothalamus at 70 uCi, iv after 30 mins; format: ADME, organism-based; conditions: in vivo, 0.5 h
Brain [35] = test: Biodistribution in Sprague-Dawley rat rest of brain at 70 uCi, iv after 30 mins; format: ADME, organism-based; conditions: in vivo, 0.5 h
Heart [36] = test: Biodistribution in Sprague-Dawley rat heart at 70 uCi, iv after 30 mins; format: ADME, organism-based; conditions: in vivo, 0.5 h
Bone [37] = test: Biodistribution in Sprague-Dawley rat bone at 70 uCi, iv after 30 mins; format: ADME, organism-based, Bone element; conditions: in vivo, 0.5 h
Plasma [38] = test: Biodistribution in Sprague-Dawley rat plasma at 70 uCi, iv after 30 mins; format: ADME, organism-based; conditions: in vivo, 0.5 h
Cerebellum [39] = test: Biodistribution in Sprague-Dawley rat cerebellum at 70 uCi, iv after 60 mins; format: ADME, organism-based; conditions: in vivo, 1 h
Hippocampus [40] = test: Biodistribution in Sprague-Dawley rat hippocampus at 70 uCi, iv after 60 mins; format: ADME, organism-based; conditions: in vivo, 1 h
Striatum [41] = test: Biodistribution in Sprague-Dawley rat striatum at 70 uCi, iv after 60 mins; format: ADME, organism-based; conditions: in vivo, 1 h
[42] = Biodistribution in Sprague-Dawley rat frontal cortex at 70 uCi, iv after 60 mins; format: ADME, organism-based; conditions: in vivo, 1 h
Cortex [43] = test: Biodistribution in Sprague-Dawley rat rest of cortex at 70 uCi, iv after 60 mins; format: ADME, organism-based; conditions: in vivo, 1 h
Thalamus [44] = test: Biodistribution in Sprague-Dawley rat thalamus at 70 uCi, iv after 60 mins; format: ADME, organism-based; conditions: in vivo, 1 h
Hypothalamus [45] = test: Biodistribution in Sprague-Dawley rat hypothalamus at 70 uCi, iv after 60 mins; format: ADME, organism-based; conditions: in vivo, 1 h
Brain [46] = test: Biodistribution in Sprague-Dawley rat rest of brain at 70 uCi, iv after 60 mins; format: ADME, organism-based; conditions: in vivo, 1 h
Heart [47] = test: Biodistribution in Sprague-Dawley rat heart at 70 uCi, iv after 60 mins; format: ADME, organism-based; conditions: in vivo, 1 h
Bone [48] = test: Biodistribution in Sprague-Dawley rat bone at 70 uCi, iv after 60 mins; format: ADME, organism-based, Bone element; conditions: in vivo, 1 h
Plasma [49] = test: Biodistribution in Sprague-Dawley rat plasma at 70 uCi, iv after 60 mins; format: ADME, organism-based; conditions: in vivo, 1 h
[50] = molecular target: Beta-1 adrenergic receptor (Homo sapiens, UniProt P08588); test: Binding affinity to beta-1 adrenergic receptor
[51] = molecular target: Beta-2 adrenergic receptor (Homo sapiens, UniProt P07550); test: Binding affinity to beta2 adrenergic receptor
Chain of Beta-2 adrenergic receptor (P07550 whole entry): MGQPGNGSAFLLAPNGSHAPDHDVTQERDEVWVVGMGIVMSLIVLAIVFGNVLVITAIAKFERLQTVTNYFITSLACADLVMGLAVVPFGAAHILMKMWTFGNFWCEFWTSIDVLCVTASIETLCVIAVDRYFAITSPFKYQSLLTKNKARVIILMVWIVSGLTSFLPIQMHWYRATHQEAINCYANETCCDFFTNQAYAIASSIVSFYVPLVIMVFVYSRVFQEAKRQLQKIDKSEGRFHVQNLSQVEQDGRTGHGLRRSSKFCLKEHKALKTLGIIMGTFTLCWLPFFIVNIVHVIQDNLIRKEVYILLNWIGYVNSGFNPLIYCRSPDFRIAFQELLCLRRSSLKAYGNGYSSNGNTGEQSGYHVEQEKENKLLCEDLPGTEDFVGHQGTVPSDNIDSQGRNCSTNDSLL

Chain of Beta-1 adrenergic receptor (P08588 whole entry): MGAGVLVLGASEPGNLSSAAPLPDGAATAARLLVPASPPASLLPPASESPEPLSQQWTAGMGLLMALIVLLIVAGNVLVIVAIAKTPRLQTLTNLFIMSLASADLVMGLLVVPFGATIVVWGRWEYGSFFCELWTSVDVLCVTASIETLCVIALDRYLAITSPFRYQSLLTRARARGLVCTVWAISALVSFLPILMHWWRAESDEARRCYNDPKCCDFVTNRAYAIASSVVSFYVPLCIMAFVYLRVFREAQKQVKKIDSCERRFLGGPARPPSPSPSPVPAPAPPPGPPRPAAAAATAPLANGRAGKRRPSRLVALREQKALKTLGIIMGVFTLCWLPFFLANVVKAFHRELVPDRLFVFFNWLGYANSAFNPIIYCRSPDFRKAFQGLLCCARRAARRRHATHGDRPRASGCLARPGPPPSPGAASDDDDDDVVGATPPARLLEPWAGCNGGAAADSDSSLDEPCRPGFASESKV

Structure (SMILES): Cc1cccc(OC[11C@@H](O)CNC(C)C)c1
- logD [1]: 0.2

Structure (SMILES): Cc1cccc(OC[C@@H](O)CNC(C)C[18F])c1 (stereo partly drawn)
- logD [1]: 1.68
- Drug uptake (Cerebellum [2]): 0.75 % ID/g
- Drug uptake (Hippocampus [3]): 0.91 % ID/g
- Drug uptake (Striatum [4]): 0.97 % ID/g
- Drug uptake [5]: 1.21 % ID/g
- Drug uptake (Cortex [6]): 1.12 % ID/g
- Drug uptake (Thalamus [7]): 1.03 % ID/g
- Drug uptake (Hypothalamus [8]): 0.77 % ID/g
- Drug uptake (Brain [9]): 0.84 % ID/g
- Drug uptake (Heart [10]): 0.59 % ID/g
- Drug uptake (Bone [11]): 0.18 % ID/g
- Drug uptake (Plasma [12]): 0.16 % ID/g
- remaining at 5 min [13]: 59.2%
- remaining at 0.25 h [14]: 28.6%
- remaining at 0.5 h [15]: 16.4%
- remaining at 1 h [16]: 11.9%
- Drug uptake (Cerebellum [17]): 0.46 % ID/g
- Drug uptake (Hippocampus [18]): 0.63 % ID/g
- Drug uptake (Heart [19]): 0.26 % ID/g
- Drug uptake (Striatum [20]): 0.59 % ID/g
- Drug uptake [21]: 0.67 % ID/g
- Drug uptake (Cortex [22]): 0.62 % ID/g
- Drug uptake (Thalamus [23]): 0.65 % ID/g
- Drug uptake (Hypothalamus [24]): 0.5 % ID/g
- Drug uptake (Brain [25]): 0.5 % ID/g
- Drug uptake (Bone [26]): 0.21 % ID/g
- Drug uptake (Plasma [27]): 0.13 % ID/g
- Drug uptake (Cerebellum [28]): 0.21 % ID/g
- Drug uptake (Hippocampus [29]): 0.31 % ID/g
- Drug uptake (Striatum [30]): 0.27 % ID/g
- Drug uptake [31]: 0.3 % ID/g
- Drug uptake (Cortex [32]): 0.29 % ID/g
- Drug uptake (Thalamus [33]): 0.29 % ID/g
- Drug uptake (Hypothalamus [34]): 0.22 % ID/g
- Drug uptake (Brain [35]): 0.24 % ID/g
- Drug uptake (Heart [36]): 0.15 % ID/g
- Drug uptake (Bone [37]): 0.18 % ID/g
- Drug uptake (Plasma [38]): 0.13 % ID/g
- Drug uptake (Cerebellum [39]): 0.08 % ID/g
- Drug uptake (Hippocampus [40]): 0.12 % ID/g
- Drug uptake (Striatum [41]): 0.11 % ID/g
- Drug uptake [42]: 0.12 % ID/g
- Drug uptake (Cortex [43]): 0.11 % ID/g
- Drug uptake (Thalamus [44]): 0.11 % ID/g
- Drug uptake (Hypothalamus [45]): 0.09 % ID/g
- Drug uptake (Brain [46]): 0.1 % ID/g
- Drug uptake (Heart [47]): 0.06 % ID/g
- Drug uptake (Bone [48]): 0.18 % ID/g
- Drug uptake (Plasma [49]): 0.08 % ID/g

Structure (SMILES): Cc1cccc(OC[C@H](O)CNC(C)C[18F])c1 (stereo partly drawn)
- logD [1]: 1.79
- Drug uptake (Cerebellum [2]): 0.82 % ID/g
- Drug uptake (Hippocampus [3]): 1.01 % ID/g
- Drug uptake (Striatum [4]): 1.04 % ID/g
- Drug uptake [5]: 1.3 % ID/g
- Drug uptake (Cortex [6]): 1.12 % ID/g
- Drug uptake (Thalamus [7]): 1.19 % ID/g
- Drug uptake (Hypothalamus [8]): 0.92 % ID/g
- Drug uptake (Brain [9]): 0.88 % ID/g
- Drug uptake (Heart [10]): 0.51 % ID/g
- Drug uptake (Bone [11]): 0.3 % ID/g
- Drug uptake (Plasma [12]): 0.16 % ID/g
- remaining at 5 min [13]: 61.9%
- remaining at 0.25 h [14]: 25.5%
- remaining at 0.5 h [15]: 12.6%
- remaining at 1 h [16]: 7.7%
- Drug uptake (Cerebellum [17]): 0.43 % ID/g
- Drug uptake (Hippocampus [18]): 0.6 % ID/g
- Drug uptake (Heart [19]): 0.26 % ID/g
- Drug uptake (Striatum [20]): 0.54 % ID/g
- Drug uptake [21]: 0.59 % ID/g
- Drug uptake (Cortex [22]): 0.55 % ID/g
- Drug uptake (Thalamus [23]): 0.62 % ID/g
- Drug uptake (Hypothalamus [24]): 0.46 % ID/g
- Drug uptake (Brain [25]): 0.47 % ID/g
- Drug uptake (Bone [26]): 0.22 % ID/g
- Drug uptake (Plasma [27]): 0.13 % ID/g
- Drug uptake (Cerebellum [28]): 0.23 % ID/g
- Drug uptake (Hippocampus [29]): 0.31 % ID/g
- Drug uptake (Striatum [30]): 0.26 % ID/g
- Drug uptake [31]: 0.29 % ID/g
- Drug uptake (Cortex [32]): 0.29 % ID/g
- Drug uptake (Thalamus [33]): 0.3 % ID/g
- Drug uptake (Hypothalamus [34]): 0.23 % ID/g
- Drug uptake (Brain [35]): 0.25 % ID/g
- Drug uptake (Heart [36]): 0.15 % ID/g
- Drug uptake (Bone [37]): 0.3 % ID/g
- Drug uptake (Plasma [38]): 0.13 % ID/g
- Drug uptake (Cerebellum [39]): 0.08 % ID/g
- Drug uptake (Hippocampus [40]): 0.12 % ID/g
- Drug uptake (Striatum [41]): 0.11 % ID/g
- Drug uptake [42]: 0.12 % ID/g
- Drug uptake (Cortex [43]): 0.11 % ID/g
- Drug uptake (Thalamus [44]): 0.12 % ID/g
- Drug uptake (Hypothalamus [45]): 0.09 % ID/g
- Drug uptake (Brain [46]): 0.1 % ID/g
- Drug uptake (Heart [47]): 0.07 % ID/g
- Drug uptake (Bone [48]): 0.25 % ID/g
- Drug uptake (Plasma [49]): 0.07 % ID/g

Structure (SMILES): Cc1cccc(OC[C@@H](O)CNC(C)C)c1 [(S)-TOLIPROLOL]
- Kd [50]: 0.38 nM
- Kd [51]: 1.2 nM

Structure (SMILES): CC(C)NCC(O)COc1cccc2[nH]c3ccccc3c12 (stereo not drawn) [CARAZOLOL]
- logD [1]: 1.36

Structure (SMILES): CC(CF)NCC(O)COc1cccc2[nH]c3ccccc3c12 (stereo not drawn) [FLUOROCARAZOLOL]
- logD [1]: 2.2
